Values of other authors, collected in patent US12708613B2, “Methods for improving physical exercise performance” (NOMIO NUTRITION AB, priority 2020, dated 2026).

System: mice

Compound: C[S+]([O-])CCCCN=C=S (centres unmarked) [sulforaphane, 1-Isothiocyanato-4-(methanesulfinyl)butane]
- effect on glucose levels (mice models): no effect
- endurance (mice, injected (intraperitoneally, 25 mg/kg body weight)): improved endurance
